Source: patent US12281122B1, “PI3K inhibitors” (Cogent Biosciences, Inc., priority 2023, dated 2025)

Experiments:
[1] = tested on: T47D (PI3Kα-H1047R) cell line; assay: HTRF phospho-AKT(S473) cell assay in T47D cells; assay type: cell-based, human; settings: Homo sapiens, 2 hours compound incubation
Outline: (§1)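 T47D: RPMI + 10% FBS + 0.2 units/mL insulin, top 5 μM. SKBR3: McCoy's 5A + 10% FBS, top 10 μM, 70 ng/ml PDGF-BB last 15 min. Both: 12-pt 1:3, 2 h, 37° C, max 0.5% DMSO; HTRF pAKT(S473); IC50.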

[2] = tested on: SKBR3 (PI3Kα-Wild Type) cell line; assay: HTRF phospho-AKT(S473) cell assay in SKBR3 cells; assay type: cell-based, human; settings: Homo sapiens, SK-BR-3, 2 hours compound incubation, PDGF-BB stimulated
Outline: as §1

[3] = T47D (PI3Kα-H1047R) cells, HTRF phospho-AKT(S473)
[4] = SKBR3 (PI3Kα-Wild Type) cells, HTRF phospho-AKT(S473)
[5] = HTRF phospho-AKT(S473), T47D (PI3Kα-H1047R) cells
[6] = HTRF phospho-AKT(S473), SKBR3 (PI3Kα-Wild Type) cells

| IC50 [1, 5] [nM] | IC50 [2, 6] [nM] | Structure (SMILES) | other results |
| --- | --- | --- | --- |
| 500 to 1000 | ≥ 5000 | Cc1cc([C@@H](C)Nc2ccc(Cl)nc2C(=O)NS(C)(=O)=O)c2nc([C@H]3[C@@H]4CN(c5cnc(C)c(F)c5)C[C@@H]43)n(C)c(=O)c2c1 [Compound 828, 6-chloro-3-(((R)-1-(2-((1R,5S,6r)-3-(5-fluoro-6-methylpyridin-3-yl)-3-azabicyclo[3.1.0]hexan-6-yl)-3,6-dimethyl-4-oxo-3,4-dihydroquinazolin-8-yl)ethyl)amino)-N-(methylsulfonyl) picolinamide] | – |
| 250 to 500 | ≥ 5000 | Cc1cc([C@@H](C)Nc2ccc(Cl)nc2C(=O)NS(C)(=O)=O)c2nc(-c3ccn(-c4ccn(C)n4)c(=O)c3)n(C)c(=O)c2c1 [Compound 807, (R)-6-chloro-3-((1-(3,6-dimethyl-2-(1-(1-methyl-1H-pyrazol-3-yl)-2-oxo-1,2-dihydropyridin-4-yl)-4-oxo-3,4-dihydroquinazolin-8-yl)ethyl)amino)-N-(methylsulfonyl) picolinamide] | – |
| < 250 | 1000 to 5000 | Cc1cc([C@@H](C)Nc2ccc(Cl)nc2C(=O)NS(C)(=O)=O)c2nc(N3CC[C@@H](Oc4cnc(C)cn4)C3)n(C)c(=O)c2c1 [Compound 672, 6-chloro-3-(((R)-1-(3,6-dimethyl-2-((R)-3-((5-methylpyrazin-2-yl)oxy)pyrrolidin-1-yl)-4-oxo-3,4-dihydroquinazolin-8-yl)ethyl)amino)-N-(methylsulfonyl) picolinamide] | – |
| < 250 | 1000 to 5000 | CCn1c(-c2ccc3nn(C)cc3c2)nc2c([C@@H](C)Nc3ccc(Cl)nc3C(=O)NS(C)(=O)=O)cc(C)cc2c1=O [Compound 812, (R)-6-chloro-3-((1-(3-ethyl-6-methyl-2-(2-methyl-2H-indazol-5-yl)-4-oxo-3,4-dihydroquinazolin-8-yl)ethyl)amino)-N-(methylsulfonyl) picolinamide] | – |
| 250 to 500 | ≥ 5000 | Cc1cc([C@@H](C)Nc2ccc(Cl)nc2C(=O)NS(C)(=O)=O)c2nc(N3CCC(c4ncnn4C(C)C)CC3)n(C)c(=O)c2c1 [Compound 719, (R)-6-chloro-3-((1-(2-(4-(1-isopropyl-1H-1,2,4-triazol-5-yl)piperidin-1-yl)-3,6-dimethyl-4-oxo-3,4-dihydroquinazolin-8-yl)ethyl)amino)-N-(methylsulfonyl) picolinamide] | – |
| 250 to 500 | ≥ 5000 | Cc1cc([C@@H](C)Nc2ccc(Cl)nc2C(=O)NS(C)(=O)=O)c2nc(N3CCC4(CCc5cn(C)nc54)CC3)n(C)c(=O)c2c1 [Compound 673, (R)-6-chloro-3-((1-(3,6-dimethyl-2-(2-methyl-4,5-dihydro-2H-spiro [cyclopenta[c]pyrazole-6,4′-piperidin]-1′-yl)-4-oxo-3,4-dihydroquinazolin-8-yl)ethyl)amino)-N-(methylsulfonyl) picolinamide] | – |
| 250 to 500 | ≥ 5000 | Cc1cc([C@@H](C)Nc2ccc(Cl)nc2C(=O)NS(C)(=O)=O)c2nc(N3Cc4ccc(-c5ccnc(C)c5)cc4C3)n(C)c(=O)c2c1 [Compound 709, (R)-6-chloro-3-((1-(3,6-dimethyl-2-(5-(2-methylpyridin-4-yl)isoindolin-2-yl)-4-oxo-3,4-dihydroquinazolin-8-yl)ethyl)amino)-N-(methylsulfonyl) picolinamide] | – |
| < 250 | 1000 to 5000 | Cc1cc([C@@H](C)Nc2ccc(Cl)nc2C(=O)NS(C)(=O)=O)c2nc(N3CCO[C@H](c4ccccc4)C3)n(C)c(=O)c2c1 [Compound 689, 6-chloro-3-(((R)-1-(3,6-dimethyl-4-oxo-2-((R)-2-phenylmorpholino)-3,4-dihydroquinazolin-8-yl)ethyl)amino)-N-(methylsulfonyl) picolinamide] | – |

More lines, now with the values behind:

| Structure (SMILES) | IC50 [1, 5] [nM] | IC50 [2, 6] [nM] | other results |
| --- | --- | --- | --- |
| Cc1cc([C@@H](C)Nc2ccc(Cl)nc2C(=O)NS(C)(=O)=O)c2nc(-c3ccc(Nc4ccccc4C)nc3)n(C)c(=O)c2c1 [Compound 283, (R)-6-chloro-3-((1-(3,6-dimethyl-4-oxo-2-(6-(o-tolylamino)pyridin-3-yl)-3,4-dihydroquinazolin-8-yl)ethyl)amino)-N-(methylsulfonyl) picolinamide] | – | – | IC50 [1, 3]: < 250 nM; IC50 [2, 4]: ≥ 5000 nM |
| Cc1cc([C@@H](C)Nc2ccc(Cl)nc2C(=O)NS(C)(=O)=O)c2nc(-c3ccc4nn(C)c(C)c4c3)n(C)c(=O)c2c1 [Compound 842, (R)-6-chloro-3-((1-(2-(2,3-dimethyl-2H-indazol-5-yl)-3,6-dimethyl-4-oxo-3,4-dihydroquinazolin-8-yl)ethyl)amino)-N-(methylsulfonyl) picolinamide] | – | – | IC50 ([1]; T47D (PI3Kα-H1047R) cell line, phospho-AKT(S473) HTRF): < 250 nM; IC50 ([2]; SKBR3 (PI3Kα-Wild Type) cell line, phospho-AKT(S473) HTRF): 1000 to 5000 nM |
| Cc1cc([C@@H](C)Nc2ccc(Cl)nc2C(=O)NS(C)(=O)=O)c2nc(N3C[C@@H]4[C@H](C3)[C@H]4c3cnn(C4CC4)n3)n(C)c(=O)c2c1 [Compound 559, 6-chloro-3-(((R)-1-(2-((1R,5S,6R)-6-(2-cyclopropyl-2H-1,2,3-triazol-4-yl)-3-azabicyclo[3.1.0]hexan-3-yl)-3,6-dimethyl-4-oxo-3,4-dihydroquinazolin-8-yl)ethyl)amino)-N-(methylsulfonyl) picolinamide] | 250 to 500 | ≥ 5000 | – |
| Cc1cc([C@@H](C)Nc2ccc(Cl)nc2C(=O)NS(C)(=O)=O)c2nc(N3C[C@@H]4[C@H](C3)[C@H]4c3nnc(C)s3)n(C)c(=O)c2c1 [Compound 598, 6-chloro-3-(((R)-1-(3,6-dimethyl-2-((1R,5S,6R)-6-(5-methyl-1,3,4-thiadiazol-2-yl)-3-azabicyclo[3.1.0]hexan-3-yl)-4-oxo-3,4-dihydroquinazolin-8-yl)ethyl)amino)-N-(methylsulfonyl) picolinamide] | < 250 | 1000 to 5000 | – |
| Cc1cc([C@@H](C)Nc2ccc(Cl)nc2C(=O)NS(C)(=O)=O)c2nc(-c3ccc(OC[C@@H]4CCN(C)CC4(F)F)nc3)n(C)c(=O)c2c1 [Compound 390, 6-chloro-3-(((R)-1-(2-(6-(((S)-3,3-difluoro-1-methylpiperidin-4-yl)methoxy)pyridin-3-yl)-3,6-dimethyl-4-oxo-3,4-dihydroquinazolin-8-yl)ethyl)amino)-N-(methylsulfonyl) picolinamide] | – | – | IC50 [1, 3]: < 250 nM; IC50 [2, 4]: ≥ 5000 nM |
| Cc1cc([C@@H](C)Nc2ccc(Cl)nc2C(=O)NS(C)(=O)=O)c2nc(N3CC[C@H](Oc4cnn(CC(F)(F)F)c4)C3)n(C)c(=O)c2c1 [Compound 330, 6-chloro-3-(((R)-1-(3,6-dimethyl-4-oxo-2-((S)-3-((1-(2,2,2-trifluoroethyl)-1H-pyrazol-4-yl)oxy)pyrrolidin-1-yl)-3,4-dihydroquinazolin-8-yl)ethyl)amino)-N-(methylsulfonyl) picolinamide] | – | – | IC50 [1, 3]: < 250 nM; IC50 [2, 4]: 1000 to 5000 nM |
| Cc1cc([C@@H](C)Nc2ccc(Cl)nc2C(=O)NS(C)(=O)=O)c2nc(N3C[C@@H]4C[C@H]3CN4c3cnc(C)c(F)c3)n(C)c(=O)c2c1 [Compound 608, 6-chloro-3-(((R)-1-(2-((1S,4S)-5-(5-fluoro-6-methylpyridin-3-yl)-2,5-diazabicyclo [2.2.1]heptan-2-yl)-3,6-dimethyl-4-oxo-3,4-dihydroquinazolin-8-yl)ethyl)amino)-N-(methylsulfonyl) picolinamide] | 500 to 1000 | ≥ 5000 | – |
| Cc1cc([C@@H](C)Nc2ccc(Cl)nc2C(=O)NS(C)(=O)=O)c2nc(N3CCC(c4cc5n(n4)CCO5)CC3)n(C)c(=O)c2c1 [Compound 556, (R)-6-chloro-3-((1-(2-(4-(2,3-dihydropyrazolo[5,1-b]oxazol-6-yl)piperidin-1-yl)-3,6-dimethyl-4-oxo-3,4-dihydroquinazolin-8-yl)ethyl)amino)-N-(methylsulfonyl) picolinamide] | < 250 | 1000 to 5000 | – |
| Cc1cc([C@@H](C)Nc2ccc(Cl)nc2C(=O)NS(C)(=O)=O)c2nc(N3CCC(c4c(C)n[nH]c4C)CC3)n(C)c(=O)c2c1 [Compound 232, (R)-6-chloro-3-((1-(2-(4-(3,5-dimethyl-1H-pyrazol-4-yl)piperidin-1-yl)-3,6-dimethyl-4-oxo-3,4-dihydroquinazolin-8-yl)ethyl)amino)-N-(methylsulfonyl) picolinamide] | – | – | IC50 [1, 3]: < 250 nM; IC50 [2, 4]: 1000 to 5000 nM |
| Cc1cc([C@@H](C)Nc2ccc(Cl)nc2C(=O)NS(C)(=O)=O)c2nc(N3Cc4cn([C@@H](C)C(F)(F)F)nc4C3)n(C)c(=O)c2c1 (relative stereo) [Compound 222, 6-chloro-3-(((R)-1-(3,6-dimethyl-4-oxo-2-(2-((R*)-1,1,1-trifluoropropan-2-yl)-2,6-dihydropyrrolo[3,4-c]pyrazol-5(4H)-yl)-3,4-dihydroquinazolin-8-yl)ethyl)amino)-N-(methylsulfonyl) picolinamide] | – | – | IC50 [1, 3]: < 250 nM; IC50 [2, 4]: 1000 to 5000 nM |
| Cc1cc([C@@H](C)Nc2ccc(Cl)nc2C(=O)NS(C)(=O)=O)c2nc(N3C[C@H]4C[C@@H](C3)C4c3n[nH]cc3F)n(C)c(=O)c2c1 (mixture of isomers) [Compound 650, 6-chloro-3-(((1R)-1-(2-((1R,5S)-6-(4-fluoro-1H-pyrazol-3-yl)-3-azabicyclo[3.1.1]heptan-3-yl)-3,6-dimethyl-4-oxo-3,4-dihydroquinazolin-8-yl)ethyl)amino)-N-(methylsulfonyl) picolinamide] | 250 to 500 | ≥ 5000 | – |
